Article PMC5858925, “Mechanochemical coupling and bi-phasic force-velocity dependence in the ultra-fast ring ATPase SpoIIIE” (eLife, 2018)

Molecular target: T1, SpoIIIE (Bacillus subtilis, UniProt P21458)
T1 construct: recombinant SpoIIIE, homo-hexamer, immobilized on polystyrene beads
Assay: optical tweezers, pause-free DNA translocation velocity vs [ATP], Michaelis-Menten fit
Format: biochemical
Details: 0.25-5 mM ATP; 5 pN opposing force; dsDNA track; 5 µM ADP and 5 µM Pi

T1 sequence (P21458 whole entry): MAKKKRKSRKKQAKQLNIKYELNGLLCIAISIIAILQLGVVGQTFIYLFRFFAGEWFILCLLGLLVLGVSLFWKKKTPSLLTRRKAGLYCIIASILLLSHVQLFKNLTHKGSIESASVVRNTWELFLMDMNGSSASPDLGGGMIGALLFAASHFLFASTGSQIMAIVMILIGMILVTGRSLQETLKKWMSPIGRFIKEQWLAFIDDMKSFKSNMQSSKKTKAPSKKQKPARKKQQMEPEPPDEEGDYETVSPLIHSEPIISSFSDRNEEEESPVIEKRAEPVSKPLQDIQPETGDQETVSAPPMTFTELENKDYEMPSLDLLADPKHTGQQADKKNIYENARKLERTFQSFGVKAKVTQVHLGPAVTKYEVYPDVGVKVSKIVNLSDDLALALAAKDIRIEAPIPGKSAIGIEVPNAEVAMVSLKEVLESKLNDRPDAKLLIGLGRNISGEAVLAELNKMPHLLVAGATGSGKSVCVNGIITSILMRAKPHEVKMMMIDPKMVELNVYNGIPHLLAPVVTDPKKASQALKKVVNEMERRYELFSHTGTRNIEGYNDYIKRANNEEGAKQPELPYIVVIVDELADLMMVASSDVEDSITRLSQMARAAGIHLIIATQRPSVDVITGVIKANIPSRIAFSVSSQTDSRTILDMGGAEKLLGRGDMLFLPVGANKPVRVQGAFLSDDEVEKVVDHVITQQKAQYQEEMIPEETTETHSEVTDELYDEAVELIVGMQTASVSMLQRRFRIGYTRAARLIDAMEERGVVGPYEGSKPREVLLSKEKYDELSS

SMILES: Nc1ncnc2c1ncn2[C@@H]1O[C@H](COP(=O)(O)OP(=O)(O)OP(=O)(O)O)[C@@H](O)[C@H]1O [ATP]
- KM: Although both Vmax and KM decrease with force, Vmax/KM is largely force-independent
